Assay results taken from ChEMBL document CHEMBL3400135, “Design, synthesis and biological evaluation of novel homocamptothecin analogues as potent antitumor agents” (Bioorg Med Chem, 2015).
Calls of active or inactive are those of the source. No cut-off for these calls is given here.

Experiments:
[1] = Cytotoxicity against human HCT116 cells after 72 hrs by sulforhodamine B assay; format: functional, cell-based, HCT-116
[2] = system: HT-29; assay: Cytotoxicity against human HT-29 cells after 72 hrs by sulforhodamine B assay; format: functional, cell-based
[3] = biological target: T1, DNA topoisomerase 1 (Homo sapiens) (UniProt P11387); assay: Inhibition of topoisomerase 1 (unknown origin) at 100 uM using supercoiled pBR322 DNA substrate by ethidium bromide staining based electrophoresis method
T1 sequence (whole entry): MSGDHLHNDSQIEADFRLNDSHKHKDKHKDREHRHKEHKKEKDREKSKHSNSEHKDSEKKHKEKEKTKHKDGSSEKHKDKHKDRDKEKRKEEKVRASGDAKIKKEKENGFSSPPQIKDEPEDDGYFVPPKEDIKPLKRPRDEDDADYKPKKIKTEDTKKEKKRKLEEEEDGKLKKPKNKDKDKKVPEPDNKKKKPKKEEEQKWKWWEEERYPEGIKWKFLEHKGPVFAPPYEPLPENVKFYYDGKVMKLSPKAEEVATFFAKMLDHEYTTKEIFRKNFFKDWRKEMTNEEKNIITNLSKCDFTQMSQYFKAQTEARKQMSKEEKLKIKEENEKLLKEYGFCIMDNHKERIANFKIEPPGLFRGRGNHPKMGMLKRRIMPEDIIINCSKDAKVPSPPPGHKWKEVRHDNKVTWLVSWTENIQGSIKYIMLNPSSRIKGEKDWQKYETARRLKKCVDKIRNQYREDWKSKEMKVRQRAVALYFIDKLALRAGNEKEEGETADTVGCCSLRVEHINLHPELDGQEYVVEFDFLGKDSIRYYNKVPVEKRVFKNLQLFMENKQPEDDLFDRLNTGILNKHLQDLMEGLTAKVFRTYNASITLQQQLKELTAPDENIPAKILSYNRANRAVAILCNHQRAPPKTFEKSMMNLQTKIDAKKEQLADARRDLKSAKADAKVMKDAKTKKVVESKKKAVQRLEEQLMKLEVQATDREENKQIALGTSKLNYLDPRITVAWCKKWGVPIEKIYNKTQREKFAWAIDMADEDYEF

[4] = biological target: T1, DNA topoisomerase 1 (Homo sapiens); assay: Inhibition of topoisomerase 1 (unknown origin) at 10 uM using supercoiled pBR322 DNA substrate by ethidium bromide staining based electrophoresis method
[5] = system: HCT-116; assay: Potency index, ratio of IC50 for SN38 to IC50 for compound against human HCT116 cells after 72 hrs by sulforhodamine B assay; format: functional
[6] = system: Mus musculus; assay: Toxicity in human HT-29 cells xenografted mouse assessed as body weight level at 15 mg/kg, iv dosed three times per week to the end of treatment measured on day 3 (reference value: 20.7 +/- 1.2 g); format: organism-based; parameters: dose 15 mg/kg, route intravenous; settings: in vivo
[7] = system: Mus musculus; assay: Toxicity in human HT-29 cells xenografted mouse assessed as body weight level at 15 mg/kg, iv dosed three times per week to the end of treatment measured on day 7 (reference value: 21.7 +/- 1 g); format: organism-based; parameters: dose 15 mg/kg, route intravenous; settings: in vivo
[8] = system: Mus musculus; assay: Toxicity in human HT-29 cells xenografted mouse assessed as body weight level at 15 mg/kg, iv dosed three times per week to the end of treatment measured on day 10 (reference value: 22.4 +/- 1.3 g); format: organism-based; parameters: dose 15 mg/kg, route intravenous; settings: in vivo
[9] = system: Mus musculus; assay: Toxicity in human HT-29 cells xenografted mouse assessed as body weight level at 15 mg/kg, iv dosed three times per week to the end of treatment measured on day 14 (reference value: 22.7 +/- 1.5 g); format: organism-based; parameters: dose 15 mg/kg, route intravenous; settings: in vivo
[10] = system: Mus musculus; assay: Toxicity in human HT-29 cells xenografted mouse assessed as body weight level at 15 mg/kg, iv dosed three times per week to the end of treatment measured on day 17 (reference value: 22 +/- 1.7 g); format: organism-based; parameters: dose 15 mg/kg, route intravenous; settings: in vivo
[11] = system: Mus musculus; assay: Toxicity in human HT-29 cells xenografted mouse assessed as body weight level at 15 mg/kg, iv dosed three times per week to the end of treatment measured on day 21 (reference value: 21.2 +/- 1.6 g); format: organism-based; parameters: dose 15 mg/kg, route intravenous; settings: in vivo
[12] = system: Mus musculus; assay: Toxicity in human HT-29 cells xenografted mouse assessed as lethal toxicity at 15 mg/kg, iv dosed three times per week to the end of treatment; format: organism-based; parameters: dose 15 mg/kg, route intravenous; settings: in vivo
[13] = system: HT-29; assay: Antitumor activity against human HT-29 cells xenografted in mouse assessed as relative tumor increment rate at 15 mg/kg, iv dosed three times per week to the end of treatment relative to untreated control; format: functional
[14] = Inhibition of survivin protein expression in human HCT116 cells at 1 nM after 48 hrs by Western blot method; format: functional, cell-based; settings: HCT-116
[15] = Inhibition of survivin protein expression in human HCT116 cells at 5 nM after 48 hrs by Western blot method; format: functional, cell-based; settings: HCT-116
[16] = Stability in human plasma assessed as lactone moieties level at 1 uM incubated at 37 degC after 3 hrs by HPLC method; format: ADME, cell-free; settings: read-out: Stability

Compound | IC50 ([1]; Homo sapiens, HCT-116, 72 h) [nM] | IC50 ([2]; Homo sapiens, HT-29, 72 h) [nM] | inhibition [3] | inhibition [4] | further results
CC[C@]1(O)c2cc3n(c(=O)c2COC(=O)[C@H]1OC(C)=O)Cc1c-3nc2ccccc2c1-c1ccncc1 | 2.95 | 11.4 | inactive |  | 
CC[C@]1(O)c2cc3n(c(=O)c2COC(=O)[C@H]1OC)Cc1c-3nc2ccccc2c1C1CCN(C)CC1 | 3.23 | 17.2 | Active | Active | 
CC[C@]1(O)c2cc3n(c(=O)c2COC(=O)[C@H]1OC)Cc1c-3nc2cc3c(cc2c1-c1ccncc1)OCO3 [listing 1 of 2 here] |  |  |  |  | IC50 ([1]; hct-116): 0.215 nM; IC50 ([2]; ht-29): 1.27 nM; Ratio IC50 [5]: 20
CCc1c2c(nc3ccc(OC(=O)N4CCC(N5CCCCC5)CC4)cc13)-c1cc3c(c(=O)n1C2)COC(=O)[C@]3(O)CC [IRINOTECAN] |  |  |  |  | Activity [6]: 19.9 g; Activity [7]: 20.8 g; Activity [8]: 21.6 g; Activity [9]: 22.4 g; Activity [10]: 22.3 g; Activity [11]: 21.3 g; Activity [12]: Non-toxic; T/C [13]: 42.22%
CC[C@]1(O)c2cc3n(c(=O)c2COC(=O)[C@H]1OC(C)=O)Cc1c-3nc2ccc(OC)cc2c1-c1ccncc1 | 7.99 | 31 | Active | Active | 
CC[C@]1(O)c2cc3n(c(=O)c2COC(=O)[C@H]1OC)Cc1c-3nc2ccccc2c1-c1ccncc1 | 2.12 | 7.18 | Active | Active | 
CC[C@]1(O)c2cc3n(c(=O)c2COC(=O)[C@H]1OC(C)=O)Cc1c-3nc2ccccc2c1C1CCN(C)CC1 | 9.74 | 63.8 | Active | Active | 
CC[C@]1(O)c2cc3n(c(=O)c2COC(=O)[C@H]1OC)Cc1c-3nc2ccccc2c1-c1cn(C)cn1 | 1.26 | 4.11 | Active | Active | 
CC[C@]1(O)c2cc3n(c(=O)c2COC(=O)[C@H]1OC)Cc1c-3nc2cc3c(cc2c1-c1ccncc1)OCO3 [listing 2 of 2 here] |  |  | Active |  | inhibition [14]: Active; inhibition [15]: Active
CC[C@]1(O)c2cc3n(c(=O)c2COC(=O)[C@H]1OC)Cc1cc2cc4c(cc2nc1-3)OCO4 | 0.2 | 0.3 | Active | Active | inhibition [14]: Active; inhibition [15]: Active
CC[C@]1(O)c2cc3n(c(=O)c2COC(=O)[C@H]1OC)Cc1c-3nc2ccc(OC)cc2c1C1CCN(C)CC1 | 8.23 | 27.1 | Active | Active | 
CC[C@]1(O)c2cc3n(c(=O)c2COC(=O)[C@H]1OC(C)=O)Cc1c-3nc2ccccc2c1-c1cn(C)cn1 | 1.47 | 9.11 | Active | Active | 
CC[C@]1(O)c2cc3n(c(=O)c2COC(=O)[C@H]1OC)Cc1cc2ccccc2nc1-3 | 1.72 | 4.79 | Active | Active | 
CC[C@]1(O)c2cc3n(c(=O)c2COC(=O)[C@H]1OC)Cc1c-3nc2ccc(OC)cc2c1-c1ccncc1 | 3.33 | 6.76 | Active | Active | 
CC[C@]1(O)c2cc3n(c(=O)c2COC(=O)[C@H]1OC(C)=O)Cc1c-3nc2ccc(OC)cc2c1C1CCN(C)CC1 | 13.2 | 54.7 | Active | Active | 
CC[C@]1(O)c2cc3n(c(=O)c2COC(=O)[C@H]1OC)Cc1cc2cc(O)ccc2nc1-3 | 4.46 | 26.7 | Active | Active | 
CCc1c2c(nc3ccc(O)cc13)-c1cc3c(c(=O)n1C2)COC(=O)[C@]3(O)CC [7-ETHYL-10-HYDROXYCAMPTOTHECIN] | 4.28 | 18.5 |  |  | remaining at 3 h, 1 µM [16]: 20%
